Measured values from patent US20040029254A1, “Method of screening anti-bacterial agents for effectiveness in treating persistant intracellular infections” (University of Washington, priority 2002, published 2004).
≈ marks a conversion by molar mass, not a printed value.

Legend:
Format in all cases: cell-based
[1] = test system: clinical isolates of C. trachomatis; assay: microbe, parasite or virus in culture
[2] = test system: C. trachomatis MoPn (mouse pneumonitis strain); assay: Anti-bacterial susceptibilities of reference strains
[3] = test system: C. trachomatis L2 (LGV serovar); assay: as above
[4] = test system: C. trachomatis B,D,E,F,G,H,I,Ia,J,K (human genital serovars); assay: as above
[5] = test system: C. suis R-19 (porcine strain); conditions: McCoy cells; for MCC (microtiter): one freeze-thaw passage in microtiter plates; for MCC1 (shell vial): one passage in shell vials; for MIC (microtiter): tetracycline-resistant strain; for MCC3 (shell vial): three passages in shell vials

| Compound | MCC1 [1] | MCC3 [1] | MCC1 (shell vial) [2] | MCC3 (shell vial) [2] | MCC (microtiter) [2] | MCC1 (shell vial) [3] | MCC3 (shell vial) [3] | MCC (microtiter) [3] | MCC1 (shell vial) [4] | MCC3 (shell vial) [4] | MCC (microtiter) [4] | MCC (microtiter) [5] | MCC1 (shell vial) [5] | MIC (microtiter) [5] | MCC3 (shell vial) [5] |
| --- | --- | --- | --- | --- | --- | --- | --- | --- | --- | --- | --- | --- | --- | --- | --- |
| CO[C@H]1/C=C/O[C@@]2(C)Oc3c(C)c(O)c4c(=O)c(c5oc6cc(N7CCN(CC(C)C)CC7)cc(O)c6nc-5c4c3C2=O)NC(=O)/C(C)=C\C=C\[C@H](C)[C@H](O)[C@@H](C)[C@@H](O)[C@@H](C)[C@H](OC(C)=O)[C@@H]1C [Rifalazil, rifalazil] | 0.001 to 0.002 µg/mL | 0.004 to 0.008 µg/mL |  |  |  |  |  |  |  |  |  |  |  |  |  |
| C[C@H]1c2cccc(O)c2C(=O)C2=C(O)[C@]3(O)C(=O)C(C(N)=O)=C(O)[C@@H](N(C)C)[C@@H]3[C@@H](O)[C@@H]21 [Doxycycline, doxycycline] | 4 to 8 µg/mL | 32 to 64 µg/mL | >8 µg/mL | 64 µg/mL | 0.5 µg/mL | >8 µg/mL | 32 µg/mL | 0.125 µg/mL | >8 µg/mL | 16 to 32 µg/mL | 0.125 µg/mL | 2.0 µg/mL | >8 µg/mL | 1.0 mg/L (≈ 2.25 µM) | >128 µg/mL |
| CCCN1CCN(c2cc(O)c3nc4c5c6c7c(C)c(O)c5c(=O)c(c-4oc3c2)NC(=O)/C(C)=C\C=C\[C@H](C)[C@H](O)[C@@H](C)[C@@H](O)[C@@H](C)[C@H](OC(C)=O)[C@H](C)[C@@H](OC)/C=C/O[C@@](C)(O7)C6=O)CC1 [KRM-1657] | 0.0005 to 0.001 µg/mL | 0.001 to 0.002 µg/mL |  |  |  |  |  |  |  |  |  |  |  |  |  |
| CC[C@H]1OC(=O)[C@H](C)[C@@H](O[C@H]2C[C@@](C)(OC)[C@@H](O)[C@H](C)O2)[C@H](C)[C@@H](O[C@@H]2O[C@H](C)C[C@H](N(C)C)[C@H]2O)[C@](C)(O)C[C@@H](C)CN(C)[C@H](C)[C@@H](O)[C@]1(C)O [Azithromycin, azithromycin] | 4 to 8 µg/mL | 32 to 64 µg/mL | >8 µg/mL | 128 µg/mL | 0.5 µg/mL | >8 µg/mL | 64 µg/mL | 0.25 µg/mL | >8 µg/mL | 64 µg/mL | 0.25 µg/mL | 0.25 µg/mL | >8 µg/mL |  | >128 µg/mL |
| CC1COc2c(N3CCN(C)CC3)c(F)cc3c(=O)c(C(=O)O)cn1c23 (stereo not drawn) [Ofloxacin, ofloxacin] | 8 to 16 µg/mL | >128 µg/mL | >8 µg/mL | >128 µg/mL | 1.0 µg/mL | >8 µg/mL | >128 µg/mL | 1.0 µg/mL | >8 µg/mL | >128 µg/mL | 1.0 µg/mL | 1.0 µg/mL | >8 µg/mL | 0.5 mg/L (≈ 1.38 µM) | >128 µg/mL |
